Reference: paper PMC5548886 (Cancer Medicine, 2017)
Like-named read-outs stand apart in the source and are kept apart here.

Legend:
[1] = Pharmacokinetics, unchanged RAF265 in plasma; format: in vivo, human; conditions: for Cmin, Mean (SD): Steady State (average of troughs from Cycle 2 Day 1 onwards); for AUC(0-t) / Cmax / Tmax / half-life: human, plasma, oral; for AUC(0-t): read-out: AUC(0-tlast), Mean (SD); for Cmax: read-out: Cmax, Mean (SD); for Tmax: read-out: Tmax, Median
Protocol: PK parameters included the maximum observed concentration (C max), time to reach C max (T max), area under the curve from time 0 to last measurable concentration (AUClast), time point of the last measurable concentration (T last), and terminal half‐life of elimination phase (T 1/2). Cycle 1 Day 1 and day 15, reported PK parameters include C max, T max, AUClast and T last. Following log‐transformation, the PK parameters AUC and C max from the PK run‐in were analyzed separately using a mixed effects model fitting terms for dose and patient (Patient treated as a random factor)‐ln(PK parameter) = a + b*ln(Dose)+error. In this model, the dose‐exposure relationship is mainly characterized by the slope parameter b. A slope lower (higher) than 1 indicates an under (over) proportional dose‐exposure relationship. The point estimate and associated 90% CI for the slope parameter were determined for safety considerations.

[2] = test system: soluble VEGFR-2 (sVEGFR-2); assay: Blood level by ELISA; format: in vivo, human; conditions: all dose levels, over time
Protocol: Pharmacodynamic markers were examined using peripheral blood samples, tumor and nevi biopsies (when available) and tumor imaging. BRAF mutation status was determined by Sanger sequencing. Pharmacodynamic markers analyzed, in available tumor/nevus samples obtained before treatment or archival tissue and during treatment on cycle 1, day 8 or day 15, including cytoplasmic p‐MEK, p‐ERK, BIM, c‐KIT, p‐AKT473, pS6 and PTEN, and nuclear p‐ERK, Ki‐67, PARP, cyclin D1, MITF, p27, and p53. Biomarker expression was determined by calculating the percentage of change in the H‐score (14) between on‐treatment and fresh/archival pretreatment specimens. Blood levels of VEGFR‐2 and were assessed before and at multiple time points while on treatment using enzyme‐linked immunosorbent assay (ELISA). […] Changes in standard uptake value (SUV) were determined by a blinded, independent central imaging review panel. Complete metabolic response (CMR) was complete resolution of tumor FDG‐PET uptake so SUV is the same as background. Partial metabolic response (PMR) decrease in sum of the tumor SUV of ≥25% from the baseline scan. Progressive metabolic disease (PMD) was defined as an increase in tumor SUV of ≥25% from the baseline scan, or the appearance of new FDG‐PET uptake in metastatic lesions. Stable metabolic disease (SMD) was defined as a change in tumor SUV between the PMR and PMD criteria.

[3] = 2 mg, Cycle 1 Day 15, DL 1, MD 2 mg
[4] = 3 mg, Cycle 1 Day 15, DL 2, MD 3 mg
[5] = 6 mg, Cycle 1 Day 15, DL 3, MD 6 mg
[6] = 8 mg, Cycle 1 Day 1, DL 1, LD 8 mg
[7] = 10 mg, First dose (PK run-in), DL 1, 10 mg
[8] = 12 mg, Cycle 1 Day 15, DL 4, MD 12 mg
[9] = 16 mg, Cycle 1 Day 1, DL 2, LD 16 mg
[10] = 20 mg, First dose (PK run-in), DL 2, 20 mg
[11] = 24 mg, Cycle 1 Day 15, DL 5, MD 24 mg
[12] = 29 mg, Cycle 1 Day 1, DL 3, LD 29 mg
[13] = 36 mg, First dose (PK run-in), DL 3, 36 mg
[14] = 48 mg, Cycle 1 Day 15, DL 6, MD 48 mg
[15] = 58 mg, Cycle 1 Day 1, DL 4, LD 58 mg
[16] = 67 mg, Cycle 1 Day 15, DL 7, MD 67 mg
[17] = 67 mg, Cycle 1 Day 15, DL 7.1, MD 67 mg
[18] = 72 mg, First dose (PK run-in), DL 4, 72 mg
[19] = 115 mg, Cycle 1 Day 1, DL 5, LD 115 mg
[20] = 144 mg, First dose (PK run-in), DL 5, 144 mg
[21] = 230 mg, Cycle 1 Day 1, DL 6, LD 230 mg
[22] = 288 mg, Cycle 1 Day 1, DL 7.1, LD 288 mg as three doses
[23] = 288 mg, First dose (PK run-in), DL 6, 288 mg
[24] = 322 mg, Cycle 1 Day 1, DL 7, LD 322 mg
[25] = 403 mg, First dose (PK run-in), DL 7, 403 mg

## Cn1c(Nc2ccc(C(F)(F)F)cc2)nc2cc(Oc3ccnc(-c4ncc(C(F)(F)F)[nH]4)c3)ccc21 [RAF265]
[1]; Cycle 1 Day 1, DL 1, LD 8 mg
  Tlast, Median: 25 h
[1]; Cycle 1 Day 1, DL 2, LD 16 mg
  Tlast, Median: 22.9 h
[1]; Cycle 1 Day 1, DL 3, LD 29 mg
  Tlast, Median: 23.8 h
[1]; Cycle 1 Day 1, DL 4, LD 58 mg
  Tlast, Median: 24.4 h
[1]; Cycle 1 Day 1, DL 5, LD 115 mg
  Tlast, Median: 24 h
[1]; Cycle 1 Day 1, DL 6, LD 230 mg
  Tlast, Median: 24.1 h
[1]; Cycle 1 Day 1, DL 7, LD 322 mg
  Tlast, Median: 24 h
[1]; Cycle 1 Day 1, DL 7.1, LD 288 mg as three doses
  Tlast, Median: 23.8 h
[1]; Cycle 1 Day 15, DL 1, MD 2 mg
  Tlast, Median: 25.3 h
[1]; Cycle 1 Day 15, DL 2, MD 3 mg
  Tlast, Median: 22.5 h
[1]; Cycle 1 Day 15, DL 3, MD 6 mg
  Tlast, Median: 24.1 h
[1]; Cycle 1 Day 15, DL 4, MD 12 mg
  Tlast, Median: 24 h
[1]; Cycle 1 Day 15, DL 5, MD 24 mg
  Tlast, Median: 24 h
[1]; Cycle 1 Day 15, DL 6, MD 48 mg
  Tlast, Median: 23.7 h
[1]; Cycle 1 Day 15, DL 7, MD 67 mg
  Tlast, Median: 23.4 h
[1]; Cycle 1 Day 15, DL 7.1, MD 67 mg
  Tlast, Median: 23.8 h
[1]; First dose (PK run-in), DL 1, 10 mg
  Tlast, Median: 168 h
[1]; First dose (PK run-in), DL 2, 20 mg
  Tlast, Median: 168 h
[1]; First dose (PK run-in), DL 3, 36 mg
  Tlast, Median: 168 h
[1]; First dose (PK run-in), DL 4, 72 mg
  Tlast, Median: 167 h
[1]; First dose (PK run-in), DL 5, 144 mg
  Tlast, Median: 167 h
[1]; First dose (PK run-in), DL 6, 288 mg
  Tlast, Median: 167 h
[1]; First dose (PK run-in), DL 7, 403 mg
  Tlast, Median: 168 h
[1]; DL 1, MD 2 mg
  Cmin, Mean (SD): 1.23 (0.22) ug/mL
[1]; DL 2, MD 3 mg
  Cmin, Mean (SD): 1.51 (0.82) ug/mL
[1]; DL 3, MD 6 mg
  Cmin, Mean (SD): 1.82 (0.28) ug/mL
[1]; DL 4, MD 12 mg
  Cmin, Mean (SD): 4.31 (1.22) ug/mL
[1]; DL 5, MD 24 mg
  Cmin, Mean (SD): 7.31 (1.99) ug/mL
[1]; DL 6, MD 48 mg
  Cmin, Mean (SD): 13.1 (5.57) ug/mL
[1]; DL 7, MD 67 mg
  Cmin, Mean (SD): 21.8 (3.76) ug/mL
[1]; DL 7.1, MD 67 mg
  Cmin, Mean (SD): 15.5 (7.47) ug/mL
[1]; across dose levels
  dose dependence of mean Cmax and AUC: increased nearly proportionally with dose
[1]; [3]
  AUC(0-t): 2670 ng·h/mL
  Cmax: 130 ng/mL
  Tmax: 3 h
[1]; [4]
  AUC(0-t): 2300 ng·h/mL
  Cmax: 120 ng/mL
  Tmax: 3.07 h
[1]; [5]
  AUC(0-t): 4150 ng·h/mL
  Cmax: 200 ng/mL
  Tmax: 2.52 h
[1]; [6]
  AUC(0-t): 2080 ng·h/mL
  Cmax: 140 ng/mL
  Tmax: 4 h
[1]; [7]
  AUC(0-t): 6200 ng·h/mL
  Cmax: 140 ng/mL
  Tmax: 3 h
[1]; 10 mg, First dose (PK run-in), DL 1, 10 mg, read-out: T1/2, Median (converted)
  half-life: 287 h
[1]; [8]
  AUC(0-t): 8590 ng·h/mL
  Cmax: 420 ng/mL
  Tmax: 5.13 h
[1]; [9]
  AUC(0-t): 2650 ng·h/mL
  Cmax: 170 ng/mL
  Tmax: 3 h
[1]; [10]
  AUC(0-t): 8770 ng·h/mL
  Cmax: 150 ng/mL
  Tmax: 2 h
[1]; 20 mg, First dose (PK run-in), DL 2, 20 mg, read-out: T1/2, Median (converted)
  half-life: 209 h
[1]; [11]
  AUC(0-t): 16100 ng·h/mL
  Cmax: 850 ng/mL
  Tmax: 2.75 h
[1]; [12]
  AUC(0-t): 3930 ng·h/mL
  Cmax: 276 ng/mL
  Tmax: 3.53 h
[1]; [13]
  AUC(0-t): 12100 ng·h/mL
  Cmax: 260 ng/mL
  Tmax: 2.52 h
[1]; 36 mg, First dose (PK run-in), DL 3, 36 mg, read-out: T1/2, Median (converted)
  half-life: 127 h
[1]; [14]
  AUC(0-t): 28500 ng·h/mL
  Cmax: 1650 ng/mL
  Tmax: 3.93 h
[1]; [15]
  AUC(0-t): 7280 ng·h/mL
  Cmax: 500 ng/mL
  Tmax: 3 h
[1]; [16]
  AUC(0-t): 46800 ng·h/mL
  Cmax: 2650 ng/mL
  Tmax: 4 h
[1]; [17]
  AUC(0-t): 35400 ng·h/mL
  Cmax: 1830 ng/mL
  Tmax: 3 h
[1]; [18]
  AUC(0-t): 22600 ng·h/mL
  Cmax: 540 ng/mL
  Tmax: 2.01 h
[1]; 72 mg, First dose (PK run-in), DL 4, 72 mg, read-out: T1/2, Median (converted)
  half-life: 174 h
[1]; [19]
  AUC(0-t): 15700 ng·h/mL
  Cmax: 1070 ng/mL
  Tmax: 2 h
[1]; [20]
  AUC(0-t): 51800 ng·h/mL
  Cmax: 1060 ng/mL
  Tmax: 2.15 h
[1]; 144 mg, First dose (PK run-in), DL 5, 144 mg, read-out: T1/2, Median (converted)
  half-life: 182 h
[1]; [21]
  AUC(0-t): 28100 ng·h/mL
  Cmax: 2250 ng/mL
  Tmax: 2.58 h
[1]; [22]
  AUC(0-t): 18400 ng·h/mL
  Cmax: 1130 ng/mL
  Tmax: 22.3 h
[1]; [23]
  AUC(0-t): 99800 ng·h/mL
  Cmax: 2310 ng/mL
  Tmax: 3 h
[1]; 288 mg, First dose (PK run-in), DL 6, 288 mg, read-out: T1/2, Median (converted)
  half-life: 183 h
[1]; [24]
  AUC(0-t): 39000 ng·h/mL
  Cmax: 2720 ng/mL
  Tmax: 3 h
[1]; [25]
  AUC(0-t): 137000 ng·h/mL
  Cmax: 2680 ng/mL
  Tmax: 3 h
[1]; 403 mg, First dose (PK run-in), DL 7, 403 mg, read-out: T1/2, Median (converted)
  half-life: 294 h
[1]; patients, read-out: half-life (converted)
  half-life: ~192 h
[1]; patients, read-out: serum half-life (converted)
  half-life: ~200 h
[2]
  sVEGFR-2 levels: significant decrease
